According to patent US20100111943A1, “COMPOSITIONS AND METHODS FOR INHIBITING CANCER METASTASIS” (Medical College of Georgia Research Institute, Inc, priority 2007, published 2010):
Entries after “also recorded” stand apart in the source; their conditions may differ.

Experiments:
K/R mutants of hsp90α = experiment: B-GA binding assay, HEK293 lysates expressing F-hsp90 K/R substitutions
Method: (§1) Biotinylated (B)-GA binding to hsp90 was assessed as described previously 26. Briefly, cell-lysates were incubated with or without 17-AAG (Developmental Therapeutics Branch of CTEP/NCI/NIH) for 1 hour at 4° C., and then incubated with B-GA to displace 17-AAG from hsp90 for another 1 h. GM-bound hsp90 was captured by biotin-GA linked to streptavidin Mutein Matrix (Roche Diagnostics, Indianapolis, Ind.) for 1 h at 4° C. The unbound supernatant was removed and the beads were washed three times with lysis buffer. The precipitates were immunoblotted for hsp90.
Following treatment with either vehicle or 100 nM of LBH, cell lysates from HEK293 cells expressing F-hsp90 or K/R substitutions were incubated with vehicle or 50 nM of 17-AAG followed by incubation with B-GA and streptavidin coated agarose beads. Precipitates from streptavidin coated beads were analyzed with anti-F antibody.

hsp90α [1] = target: T1, hsp90α (Homo sapiens, UniProt P07900); experiment: Biotinylated-geldanamycin (B-GA) binding assay, MDA-MB-468 cell lysates
T1 construct: acetylation of the endogenous hsp90α due to treatment with LBH589; endogenous in cells; host or cells: MDA-MB-468
Method: as §1
Cell lysates containing hsp90α and ATP-sepharose were also incubated with B-GA followed by streptavidin coated agarose beads and eluted proteins were analyzed with anti-F antibody. […] MB-468 cells cultured in DMEM medium containing 10% FBS were treated with the indicated concentration of LBH589 for 16 hours. Following this, cell lysates were incubated with B-GA followed by streptavidin coated agarose beads and eluted proteins were analyzed with anti-hsp90α antibody. Acetylation and expression level of endogenous hsp90 were detected with anti-AcK and anti-hsp90 antibody, respectively.
MB-468 cells ectopically expressing F-hsp90α were treated with 100 nM of LBH589 for 16 hours. Following this, equal amount of cell lysates were incubated with 0, 5, 10 or 50 nM of 17-AAG for 30 min at 4° C., followed by incubation with B-GA and streptavidin-coated agarose beads. Precipitates from streptavidin coated beads were analyzed with anti-F antibody.

MB-231 cells = experiment: In vitro matrigel invasion assay, MB-231 cells; type: cell-based; conditions: 10, 20, 40 nM LBH589 (FIG. 1A)
Method: In vitro invasion assay were performed, as previously described 12, 27 by using the Cultrex® Cell Invasion Assay kit (RandD Systems, Minneapolis, Minn.). In brief, serumstarved cells in 50 μL serum-free medium with or without antibody or IgG were placed in the top chamber and allowed to invade for 24 hours. The lower chambers (assay chamber) were filled with 10% FBS medium. After incubation, migrated cells on the […] chamber of the membrane were dissociated with cell dissociation solution containing Calcein AM at 37° C. for 1 hour and read the bottom plate at 485 nm excitation and 520 nm emission.
The effect of anti-hsp90α with anti-Ac-K69 hsp90α antibody on the in vitro invasiveness of MB-231 breast cancer cells was compared. Serum-starved MB-231 cells treated with 20 μg/mL anti-hsp90α or anti-AcK69 hsp90α antibody were used for determining in vitro matrigel invasion (see Example 4 for protocol). Untreated cells, or cells treated with IgG were used as controls.

F-hsp90α = experiment: Acetylation of F-hsp90α in HEK293 cells (immunoprecipitation, anti-AcK immunoblot); type: cell-based; conditions: HEK293 cells with ectopic expression of FLAG (F)-hsp90α
Method: Following culture in the plates for 24 hours, cells were transfected by Lipofectamine Plus following the protocol provided by Invitrogen (Carlsbad, Calif.). Transfected cells were cultured in full-medium containing drugs dissolved in DMSO or vehicle for 24 hours. Cellular extracts were prepared by directly adding lysis buffer (25 mM Tris-phosphate, pH 7.8, 2 mM DTT, 2 mM 1,2-diaminocyclohexane-N′,N′,N′,N′-tetraacetic acid, 10% glycerol, 0.2% Triton X-100) to the cells on ice. For immuno-precipitations (IP), 2×10^6 cells in 100 mm dishes were transfected and/or treated as described above. Cellular extracts were prepared and immunoprecipitation performed as described 24. For immunoblotting, cellular extracts or immunoprecipitates were separated on SDS-PAGE, transferred to a nitrocellulose membrane, probed with antibodies, and visualized with enhanced chemiluminescence, as described (Chen, Z., et al., Mol. Pharmacol., 69:1527-33 (2006)).
Hsp90 is acetylated both in vitro and in vivo. […] To determine whether p300 acts as the HAT for hsp90α, following incubation with p300 and acetyl-CoA, in vitro translated hsp90α was analyzed for its acetylation status by Western analysis with anti-AcK antibody. p300 was necessary for the acetylation of hsp90α in the in vitro assay. […] In HEK293 cells, it was determined that p300 can be coimmunoprecipitated with hsp90α. […]

hsp90α [2] = experiment: Export and extracellular localization of hsp90α from serum-starved T47D cells (immunoblot of medium); type: cell-based
From the text: Previous reports have shown that the inducible isoform hsp90α, but not hsp90β, can be secreted and found on the surface of cancer cells, although it lacks the classical signal sequence (Eustace, B. K., et al., Nat Cell Biol., 6:507-14 (2004); Eustace, B. et al., Cell Cycle., 3:1098-1100 (2004)). […] Concentrated extra-cellular medium or cell lysates from T47D cells, which were either serum-starved or cultured in 10% FBS, were immunoblotted with anti-hsp90α antibody. β-actin served as a loading control. Under starvation, both endogenous and exogenous hsp90α are secreted from T47D cells in the acetylated form. Extra-cellular hsp90α was immunoprecipitated with anti-AcK antibody and immunoblotted with either anti-hsp90α or M2 antibody.
To further verify this, the export and extracellular location of acetylation mimetic (K/Q) or acetylation-resistant (K/R) mutants transfected into T47D cells that were cultured under serum-free condition were determined. In serum-starved T47D cells, K/R substitutions at K69, K100 and K558 decrease, while K/Q substitutions increase the level of extracellular hsp90α. Supernatants of serum starved T47D cells transfected with the F-tagged hsp90α mutant constructs K69Q, K100Q, K292Q, K327Q, K478Q, K546Q, and K558Q were concentrated and immunoblotted with anti-F antibody. Coomassie-stained non-specific proteins served as the loading control. […]

[3] = test system: acetylated hsp90α with MMP-2; experiment: Extracellular co-immunoprecipitation of acetylated hsp90α with MMP-2, MDA-MB-231 supernatant; type: cell-based; conditions: supernatant of serum starved LBH treated MDA-MB-231 cells
Method: Supernatant of serum starved LBH treated MDA-MB-231 cells was concentrated and immunoprecipitates with anti-hsp90α antibody were immunoblotted with anti-AcK, anti-MMP-2 or hsp90α antibody. […] Whether increased extracellular location of K69Q, K100Q or K558Q mutant promotes in vitro invasiveness of breast cancer cells was determined. For this, stable transfectants of MB-468 cells expressing the wild-type hsp90α we created, or the K/Q or K/R mutants of hsp90α at the residues K69, K100 and K558, and their in vitro invasiveness in the matrigel-based assay was evaluated.

acetylated hsp90α = experiment: Confocal microscopy of membrane-associated acetylated hsp90α, MB-231 cells; type: cell-based; conditions: serum-starved MB-231 cells, 40 nM LBH589 for 16 hours, anti-Ac-K69 staining
Method: MDA-MB-231 cells were cultured in a chamber slide in RPMI medium with 10% FBS or under serum-free conditions with or without 40 nM LBH589 for 16 hours and stained with anti-acetyl (Ac)-[…] antibody. Briefly, after 16 hours incubation, cells were washed with PBS and fixed with 4% paraformaldehyde for 10 minutes. Following this, the slides were blocked with 3% BSA for 30 minutes and incubated with primary antibody at a dilution of 1:100 in blocking buffer for 2 hours. Following three washes with PBS the slides were incubated in Alexa Fluor 488 anti-rabbit secondary antibody (Molecular probes, Invitrogen) for one hour at 1:3000 dilution. After three washes with PBS, the cells were counterstained with DAPI using Vectashield mountant with DAPI and imaged using Zeiss LSM510 confocal microscope. […] Serum-starved MB-231 cells were treated with 40 nM LBH589 for 16 hours, followed by staining with anti-AcK69 hsp90α antibody and confocal microscopy. Cells cultured in RPMI with 10% FBS and cells stained with rabbit IgG served as controls.

hsp90α [4] = experiment: Acetylation of hsp90α in MB-231 cells (immunoblot with anti-AcK69-hsp90α antibody); type: cell-based; conditions: MB-231 cells treated with LBH589
From the text: Next, a polyclonal antibody was generated against the acetylated K69-containing peptide of hsp90α (anti-Ac-K69). The specificity of the antibody was confirmed by determining its ability to detect the increase in the acetylation of the ectopically expressed […] hsp90α following treatment with the HDAC inhibitor LBH589. MB-231 cells were transfected with F-hsp90α followed by the treatment with LBH589. Immunoprecipitates of F-hsp90α with anti-M2 conjugated beads were immunoblotted with anti-K69-hsp90α antibody for the acetylation status and anti-F antibody for F-hsp90α expression. Cells transfected with empty vector followed the treatment with LBH589 served as control for specificity. Acetylation of endogenous hsp90αinduced by LBH589 was also detected with anti-AcK69-hsp90α antibody. Immunoprecipitates of endogenous hsp90α with anti-hsp90α antibody from cell lysates of MB-231 cells treated with or without LBH589 were immunoblotted with either anti-AcK69-hsp90α or anti-hsp90α (rabbit) antibody. IgG served as the control for specificity of the immunoprecipitates.

Row | Compound | 17-AAG binding to K/R mutants (displacement of B-GA) (K/R mutants of hsp90α; HEK293 lysates after 100 nM LBH, 50 nM 17-AAG) | displacement of B-GA binding to hsp90 (hsp90α [1]; lysates incubated with 0, 5, 10 or 50 nM 17-AAG for 30 min at 4° C., cells exposed or unexposed to LBH589) | matrigel invasion by MB-231 cells (MB-231 cells) | acetylation of F-hsp90α (F-hsp90α) | export and extracellular location of K/R mutants of hsp90α (hsp90α [2]; serum-starved T47D cells transfected with K/R mutants, cotreatment with LBH589) | export and extracellular localization of hyper-acetylated hsp90α (hsp90α [2]; serum-starved T47D cells, 0, 25, 50 or 100 nM LBH589) | extra-cellular binding of acetylated hsp90α with MMP-2 [3] | B-GA binding of K/R mutants of hsp90α (K/R mutants of hsp90α; HEK293 cells, 100 nM LBH) | levels of membrane associated acetylated hsp90α (acetylated hsp90α) | B-GA binding of hsp90α (hsp90α [1]; MDA-MB-468 cells treated with LBH589 for 16 hours) | 17-AAG binding to acetylated endogenous hsp90 (hsp90α [1]; MDA-MB-468 cells, 100 nM LBH589 for 16 hours, then lysates with 0, 5, 10 or 50 nM 17-AAG) | acetylated hsp90α detected by anti-Ac-K69 hsp90α antibody (hsp90α [4])
1 | 17-allylamino-17-demethoxygeldanamycin [17-AAG] | decreased binding of K/R mutants to 17-AAG | B-GA binding to hsp90 was reduced by 17-AAG treatment | – | – | – | – | – | – | – | – | – | –
2 | Cc1[nH]c2ccccc2c1CCNCc1ccc(/C=C/C(=O)NO)cc1 [LBH589] | – | – | dose dependently increased matrigel invasion | hyper-acetylation of F-hsp90α | increased the export and extracellular location of K/R mutants of hsp90α to a variable extent; also recorded: promote extracellular localization of K/R mutants of hsp90α | promoted and increased the export and extracellular localization of hyper-acetylated hsp90α; also recorded: occurs in a dose dependent manner | increased extra-cellular binding of acetylated hsp90α with MMP-2 | increased binding to B-GA | increased levels of the membrane associated acetylated hsp90α | increase in B-GA binding of hsp90α | promoted 17-AAG binding to the acetylated endogenous hsp90 | increase in the acetylated hsp90α
3 | O=C(CCCCCCC(=O)Nc1ccccc1)NO [vorinostat] | – | – | – | hyper-acetylation of F-hsp90α | – | – | – | – | – | – | – | –
